Measurements reported in patent US20100093808A1, “SALT AND POLYMORPH OF A DPP-IV INHIBITOR” (priority 2005, published 2010).
Where a name gives a salt, the structure may show the parent alone.

Molecular target: T1, human DPP-IV (Homo sapiens, UniProt P27487)
T1 construct: made in house; host or cells: Pichia pastoris (purified from the culture medium)
Assay: DPP-IV activity assay (colorimetric / fluorometric)
Format: biochemical
Conditions: natural human DPP-IV from human plasma pool or recombinant human DPP-IV; 37° C., pH 7.8
Method: Activity of DPP-IV inhibitors are tested with natural human DPP-IV derived from a human plasma pool or with recombinant human DPP-IV. Human citrate plasma from different donors is pooled, filtered through a 0.2 micron membrane under sterile conditions and aliquots of 1 mL are shock frozen and stored at […]. until used. In the colorimetric DPP-IV assay 5 to 10 μL human plasma and in the fluorometric assay 1.0 μL of human plasma in a total assay volume of 100 μL is used as an enzyme source. The cDNA of the human DPP-IV sequence of amino acid 31- to 766, restricted for the N-terminus and the transmembrane domain, is cloned into pichia pastoris. […]
In the colorimetric assay H-Ala-Pro-pNA.HCl (Bachem L-1115) is used as a substrate. […] Fluorescence is detected in a Perkin Elmer Luminescence Spectrometer LS 50B at an excitation wavelength of 400 nm and an emission wavelength of 505 nm continuously every 15 seconds for 10 to 30 minutes. Initial rate constants are calculated by best fit linear regression. The absorption of pNA liberated from the colorimetric substrate is detected in a Packard SpectraCount at […] continuously every 2 minutes for 30 to 120 minutes. Initial rate constants are calculated by best fit linear regression. […]
IC50 determinations of test compounds are calculated by non-linear best fit regression of the DPP-IV inhibition of at least 5 different compound concentrations. […]

T1 sequence (P27487 31-766): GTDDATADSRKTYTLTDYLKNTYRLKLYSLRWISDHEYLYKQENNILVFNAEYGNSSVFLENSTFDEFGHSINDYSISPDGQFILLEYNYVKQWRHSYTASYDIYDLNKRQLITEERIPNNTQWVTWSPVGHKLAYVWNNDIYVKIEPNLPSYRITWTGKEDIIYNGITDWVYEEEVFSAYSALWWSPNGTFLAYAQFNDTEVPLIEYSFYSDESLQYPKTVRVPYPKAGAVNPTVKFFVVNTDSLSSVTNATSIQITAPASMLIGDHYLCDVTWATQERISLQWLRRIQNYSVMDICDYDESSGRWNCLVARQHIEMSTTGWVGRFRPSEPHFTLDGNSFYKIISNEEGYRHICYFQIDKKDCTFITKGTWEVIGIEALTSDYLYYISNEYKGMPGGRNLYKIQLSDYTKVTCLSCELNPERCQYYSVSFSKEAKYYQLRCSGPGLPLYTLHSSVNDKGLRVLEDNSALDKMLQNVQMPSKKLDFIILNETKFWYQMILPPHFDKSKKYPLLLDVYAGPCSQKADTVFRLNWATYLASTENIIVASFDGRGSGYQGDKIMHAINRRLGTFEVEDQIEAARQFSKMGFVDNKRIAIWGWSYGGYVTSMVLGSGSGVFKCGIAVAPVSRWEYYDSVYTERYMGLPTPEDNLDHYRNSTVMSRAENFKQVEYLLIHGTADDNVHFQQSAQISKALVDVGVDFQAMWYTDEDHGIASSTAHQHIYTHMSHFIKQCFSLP

IC50: 21.2 nM
Ki: 22.7 nM
Structure (SMILES): CC(C)(CCn1cnc(-c2cccnc2)c1)NCC(=O)N1CCC[C@H]1C#N [(2S)-1-{[1,1-Dimethyl-3-(4-pyridin-3-yl-imidazol-1-yl)-propylamino]-acetyl}-pyrrolidine-2-carbonitrile fumarate]
